Test results: patent US11369605B2, “Optically active azabicyclo ring derivative” (priority 2018, dated 2022)
Entries after “also recorded” stand apart in the source; their conditions may differ.

Tests used:
[1] = system: RS4; 11 cells; test: Test 2: inhibition of cell proliferation, RS4; 11; assay type: cell-based; conditions: summary of Test 2 (RS4; 11 and MOLM-13)
Description: (§1) Test for Evaluating the Inhibition of Cell Proliferation RS4; 11 cells were obtained from American Type Culture Collection (ATCC). […] MOLM-13 cells were separately obtained from DSMZ (Deutsche Sammlung von Mikroorganismen und Zeilkulturen GmbH). […] The cells were plated to a 96-well plate in 2000 cells/well, each test compound was added thereto to adjust the final concentration of DMSO to 0.1% of DMSO, and the cells were cultured for 7 days. After the cultivation, the cell viability was calculated with PrestoBlue™ Cell Viability Reagent (Invitrogen, A13261).

[2] = target: Menin-MLL binding (His-Menin1-615, MLL1-172-FLAG) (Homo sapiens (Human), UniProt O00255); test: Test 1: inhibition of the Menin-MLL binding (HTRF); conditions: summary of Test 1 table
Description: Test 1: Test for Evaluating the Inbinition of the Menin-MLL Binding
After the incubation, the signal was detected with RUBYstar (BMG LABTECH).

[3] = target: hERG (human Ether-a-go-go Related Gene) (Homo sapiens (Human), UniProt Q12809); test: Test 4: hERG inhibition (QPatch HT); conditions: for gap between RS4; 11 proliferation IC50 and hERG current IC50: summary of Test 4 table; for IC50: read-out: hERG inhibition IC50, CHO cell strain stably expressing hERG
[4] = system: MEIS1 mRNA in MV4; 11 cells; test: Test 3: inhibition of mRNA transcription, MEIS1; assay type: cell-based; conditions: MEIS1 and HOXA9, MV4, summary of Test 3
Description: Test 3: Test for the Inhibition of mRNA Transcription with Test Compounds
MV4; 11 cells were obtained from American Type Culture Collection (ATCC). […] After the incubation, the total RNA was extracted from the cells with RNeasy™ Mini Kit (QIAGEN, 74106), and cDNA was synthesized with Superscript™ VILO™ cDNA Synthesis Kit (Invitrogen, #11754250). By using TaqMan™ Gene Expression Master Mix (Applied Biosystems, 4369016) and TaqMan™ probe (Applied Biosystems), the expression level of mRNA was quantified from the obtained cDNA with 7900HT (Applied Biosystems). The expression level of each obtained gene (MEIS1 and HOXA9) was fitted with the expression level of mRNA of GAPDH.

[5] = system: MOLM-13 cells; test: Test 2: inhibition of cell proliferation, MOLM-13; assay type: cell-based; conditions: cultured 7 days, PrestoBlue
Description: as §1

Sequence of hERG (human Ether-a-go-go Related Gene) (Q12809 whole entry): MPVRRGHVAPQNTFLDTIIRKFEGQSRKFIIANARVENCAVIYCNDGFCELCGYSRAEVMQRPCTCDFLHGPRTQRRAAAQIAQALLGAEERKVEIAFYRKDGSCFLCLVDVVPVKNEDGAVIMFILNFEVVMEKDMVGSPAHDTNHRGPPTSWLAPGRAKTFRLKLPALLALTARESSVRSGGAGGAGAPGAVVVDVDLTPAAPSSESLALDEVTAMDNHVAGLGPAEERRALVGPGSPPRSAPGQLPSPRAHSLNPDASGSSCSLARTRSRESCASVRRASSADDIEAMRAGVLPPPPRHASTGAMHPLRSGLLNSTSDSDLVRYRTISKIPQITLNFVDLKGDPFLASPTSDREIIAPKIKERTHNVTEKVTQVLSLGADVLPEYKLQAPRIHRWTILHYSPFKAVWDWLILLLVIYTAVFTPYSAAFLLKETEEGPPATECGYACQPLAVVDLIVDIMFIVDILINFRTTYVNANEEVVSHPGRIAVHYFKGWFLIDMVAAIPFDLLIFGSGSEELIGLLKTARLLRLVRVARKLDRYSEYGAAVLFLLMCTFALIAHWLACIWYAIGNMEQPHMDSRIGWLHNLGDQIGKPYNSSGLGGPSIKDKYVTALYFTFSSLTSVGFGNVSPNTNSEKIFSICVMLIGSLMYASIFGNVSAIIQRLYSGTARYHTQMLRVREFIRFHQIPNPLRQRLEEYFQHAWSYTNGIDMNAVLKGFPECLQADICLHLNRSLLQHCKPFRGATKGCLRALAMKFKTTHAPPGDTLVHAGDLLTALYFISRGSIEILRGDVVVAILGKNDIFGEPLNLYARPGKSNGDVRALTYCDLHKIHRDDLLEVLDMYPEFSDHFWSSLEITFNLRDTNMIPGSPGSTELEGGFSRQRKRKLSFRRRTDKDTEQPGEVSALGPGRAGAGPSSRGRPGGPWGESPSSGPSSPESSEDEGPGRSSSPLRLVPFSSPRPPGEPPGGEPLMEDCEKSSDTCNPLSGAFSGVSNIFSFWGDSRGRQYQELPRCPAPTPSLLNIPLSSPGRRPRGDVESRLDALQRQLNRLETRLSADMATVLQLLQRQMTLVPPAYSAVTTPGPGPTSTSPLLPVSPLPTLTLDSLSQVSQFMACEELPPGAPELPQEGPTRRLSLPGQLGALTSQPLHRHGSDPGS
Sequence of Menin-MLL binding (His-Menin1-615, MLL1-172-FLAG) (O00255 other isoform, or with tags, fused parts or gaps): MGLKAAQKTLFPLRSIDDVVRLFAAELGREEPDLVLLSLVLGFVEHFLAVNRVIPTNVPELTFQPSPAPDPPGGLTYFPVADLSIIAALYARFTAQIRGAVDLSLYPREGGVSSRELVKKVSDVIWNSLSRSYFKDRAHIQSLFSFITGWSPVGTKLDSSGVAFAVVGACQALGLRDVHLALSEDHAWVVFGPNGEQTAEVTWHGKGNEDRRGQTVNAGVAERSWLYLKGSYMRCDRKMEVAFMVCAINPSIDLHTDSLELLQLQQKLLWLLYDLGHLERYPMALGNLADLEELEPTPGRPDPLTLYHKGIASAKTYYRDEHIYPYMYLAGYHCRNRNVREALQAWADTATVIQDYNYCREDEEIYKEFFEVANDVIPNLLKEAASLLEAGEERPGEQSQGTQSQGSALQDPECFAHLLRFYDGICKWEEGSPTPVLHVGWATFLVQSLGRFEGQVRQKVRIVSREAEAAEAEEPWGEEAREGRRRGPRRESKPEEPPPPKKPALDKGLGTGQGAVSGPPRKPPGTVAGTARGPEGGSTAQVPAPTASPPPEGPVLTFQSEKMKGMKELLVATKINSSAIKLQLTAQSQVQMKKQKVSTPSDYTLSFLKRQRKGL

What does the source list for `CC(C)N(C(=O)c1cc(F)ccc1Oc1cncnc1N1CC2(CCN(C(=O)[C@H]3N[C@H]4CC[C@@H]3C[C@H]4CC3CC3)CC2)C1)C(C)C` [Example 4, 2-[(4-{7-[(1S,3S,4R,6R)-6-(cyclopropylmethyl)-2-azabicyclo[2.2.2]octane-3-carbonyl]-2,7-diazaspiro[3.5]nonan-2-yl}pyrimidin-5-yl)oxy]-5-fluoro-N,N-di(propan-2-yl)benzamide]?
cell proliferation inhibition activity (in words) [1]: potent; Menin-MLL binding inhibition activity (in words) [2]: potent; gap between RS4; 11 proliferation IC50 and hERG current IC50 [3]: more than 100 fold; mRNA transcription inhibition activity (in words) [4]: showed the mRNA transcription inhibition activity

With “2-[(4-{7-[(1R,3S,4S)-2-azabicyclo[2.2.1]heptane-3-carbonyl]-2,7-diazaspiro[3.5]nonan-2-yl}pyrimidin-5-yl)oxy]-5-fluoro-N,N-di(propan-2-yl)benzamide [Example 16]” as the molecule, how does the “cell proliferation inhibition activity (in words)” value [1] read?
Its value is “potent”.

What about the IC50 [5] of the same molecule?
The IC50 was 0.04 µM.

What about the IC50 [3] of the same molecule?
Its IC50 is greater than 100 µM.

“5-fluoro-2-[(4-{7-[(1S,3S,4R)-5-methylidene-2-azabicyclo[2.2.1]heptane-3-carbonyl]-2,7-diazaspiro[3.5]nonan-2-yl}pyrimidin-5-yl)oxy]-N,N-di(propan-2-yl)benzamide [Example 18]” was tested. Which “cell proliferation inhibition activity (in words)” value [1] did it give?
Its value is “potent”.

And the IC50 [5]?
The IC50 was 0.04 µM.

And the IC50 [3]?
The IC50 was 46.1 µM.

With `C=C1C[C@@H]2CC[C@H]1[C@@H](C(=O)N1CCC3(CC1)CN(c1ncncc1Oc1ccc(F)cc1C(=O)N(C(C)C)C(C)C)C3)N2` [Example 6, 5-Fluoro-2-[(4-{7-[(1S,3S,4R)-5-methylidene-2-azabicyclo[2.2.2]octane-3-carbonyl]-2,7-diazaspiro[3.5]nonan-2-yl}pyrimidin-5-yl)oxy]-N,N-di(propan-2-yl)benzamide] as the molecule, how does the “mRNA transcription inhibition activity (in words)” value [4] read?
Its value is “showed the mRNA transcription inhibition activity”.

How did the “gap between RS4; 11 proliferation IC50 and hERG current IC50” value (from here on “gap between RS4”) [3] turn out when `C=C1C[C@H]2CC[C@@H]1N[C@@H]2C(=O)N1CC2(C1)CN(c1ncncc1Oc1ccc(F)cc1C(=O)N(C(C)C)C(C)C)C2` [Example 9, 5-fluoro-2-[(4-{6-[(1S,3S,4R)-6-methylidene-2-azabicyclo[2.2.2]octane-3-carbonyl]-2,6-diazaspiro[3.3]heptan-2-yl}pyrimidin-5-yl)oxy]-N,N-di(propan-2-yl)benzamide] was run?
The value was “more than 100 fold”.

With `CC(C)N(C(=O)c1cc(F)ccc1Oc1cncnc1N1CC2(CN(C(=O)[C@H]3N[C@H]4CC[C@@H]3[C@@H](F)C4)C2)C1)C(C)C` [Example 10, 5-fluoro-2-[(4-{6-[(1S,3S,4S,5S)-5-fluoro-2-azabicyclo[2.2.2]octane-3-carbonyl]-2,6-diazaspiro[3.3]heptan-2-yl}pyrimidin-5-yl)oxy]-N,N-di(propan-2-yl)benzamide] as the molecule, how does the “cell proliferation inhibition activity (in words)” value [1] read?
Its value is “potent”.

And the “Menin-MLL binding inhibition activity (in words)” value [2]?
The value was “particularly potent”.

What about the “gap between RS4” value [3] of the same molecule?
Its value is “more than 100 fold”.

What about the “mRNA transcription inhibition activity (in words)” value [4] of the same molecule?
The value was “showed the mRNA transcription inhibition activity”.

`C=C1C[C@H]2CC[C@@H]1N[C@@H]2C(=O)N1CCC2(CC1)CN(c1ncncc1Oc1ccc(F)cc1C(=O)N(C(C)C)C(C)C)C2` [Example 8, 5-fluoro-2-[(4-{7-[(1S,3S,4R)-6-methylidene-2-azabicyclo[2.2.2]octane-3-carbonyl]-2,7-diazaspiro[3.5]nonan-2-yl}pyrimidin-5-yl)oxy]-N,N-di(propan-2-yl)benzamide] was tested. Which “gap between RS4” value [3] did it give?
Its value is “more than 100 fold”.

What does the source list for `CC(C)N(C(=O)c1cc(F)ccc1Oc1cncnc1N1CC2(CCN(C(=O)[C@H]3N[C@H]4CC[C@@H]3[C@H](F)[C@@H]4CC3CC3)CC2)C1)C(C)C` [Example 19, 2-[(4-{7-[(1S,3S,4S,5R,6R)-6-(cyclopropylmethyl)-5-fluoro-2-azabicyclo[2.2.2]octane-3-carbonyl]-2,7-diazaspiro[3.5]nonan-2-yl}pyrimidin-5-yl)oxy]-5-fluoro-N,N-di(propan-2-yl)benzamide]?
cell proliferation inhibition activity (in words) [1]: potent; hERG/RS4; 11 ([3]; hERG IC50 divided by RS4, 11 proliferation IC50): >690; gap between RS4; 11 proliferation IC50 and hERG current IC50 [3]: more than 100 fold

Which “cell proliferation inhibition activity (in words)” value [1] does the source give for `CC(C)N(C(=O)c1cc(F)ccc1Oc1cncnc1N1CC2(CCN(C(=O)[C@H]3N[C@H]4CC[C@@H]3C[C@@H]4CC3CC3)CC2)C1)C(C)C` [Example 1, 2-[(4-{7-[(1S,3S,4R,6S)-6-(Cyclopropylmethyl)-2-azabicyclo[2.2.2]octane-3-carbonyl]-2,7-diazaspiro[3.5]nonan-2-yl}pyrimidin-5-yl)oxy]-5-fluoro-N,N-di(propan-2-yl)benzamide] here?
The value was “potent”.

And the “Menin-MLL binding inhibition activity (in words)” value [2]?
The value was “potent”.

What about the “gap between RS4” value [3] of the same molecule?
Its value is “more than 100 fold”.

And the “mRNA transcription inhibition activity (in words)” value [4]?
Its value is “showed the mRNA transcription inhibition activity”.

With `CC(C)N(C(=O)c1cc(F)ccc1Oc1cncnc1N1CC2(CN(C(=O)[C@H]3N[C@H]4CC[C@@H]3C[C@@H]4CC3CC3)C2)C1)C(C)C` [Example 3, 2-[(4-{6-[(1S,3S,4R,6S)-6-(cyclopropylmethyl)-2-azabicyclo[2.2.2]octane-3-carbonyl]-2,6-diazaspiro[3.3]heptan-2-yl}pyrimidin-5-yl)oxy]-5-fluoro-N,N-di(propan-2-yl)benzamide] as the molecule, how does the “cell proliferation inhibition activity (in words)” value [1] read?
Its value is “potent”.

What about the “Menin-MLL binding inhibition activity (in words)” value [2] of the same molecule?
Its value is “particularly potent”.

And the “gap between RS4” value [3]?
Its value is “more than 100 fold”.

And the “mRNA transcription inhibition activity (in words)” value [4]?
Its value is “showed the mRNA transcription inhibition activity”.

With `CC(C)N(C(=O)c1cc(F)ccc1Oc1cncnc1N1CC2(CCN(C(=O)[C@H]3N[C@H]4CC[C@@H]3C(=O)C4)CC2)C1)C(C)C` [Example 12, 5-fluoro-2-[(4-{7-[(1S,3S,4S)-5-oxo-2-azabicyclo[2.2.2]octane-3-carbonyl]-2,7-diazaspiro[3.5]nonan-2-yl}pyrimidin-5-yl)oxy]-N,N-di(propan-2-yl)benzamide] as the molecule, how does the “gap between RS4” value [3] read?
The value was “more than 100 fold”.

Which results are given for `CC(C)N(C(=O)c1cc(F)ccc1Oc1cncnc1N1CC2(CN(C(=O)[C@H]3N[C@H]4CC[C@@H]3C[C@H]4CC3CC3)C2)C1)C(C)C` [Example 5, 2-[(4-{6-[(1S,3S,4R,6R)-6-(cyclopropylmethyl)-2-azabicyclo[2.2.2]octane-3-carbonyl]-2,6-diazaspiro[3.3]heptan-2-yl}pyrimidin-5-yl)oxy]-5-fluoro-N,N-di(propan-2-yl)benzamide]?
cell proliferation inhibition activity (in words) [1]: potent; also recorded: excellent; Menin-MLL binding inhibition activity (in words) [2]: potent; gap between RS4; 11 proliferation IC50 and hERG current IC50 [3]: more than 100 fold; mRNA transcription inhibition activity (in words) [4]: showed the mRNA transcription inhibition activity

For “2-[(4-{6-[(1R,3S,4S)-2-azabicyclo[2.2.1]heptane-3-carbonyl]-2,6-diazaspiro[3.3]heptan-2-yl}pyrimidin-5-yl)oxy]-5-fluoro-N,N-di(propan-2-yl)benzamide [Example 15]”, which “cell proliferation inhibition activity (in words)” value [1] is on record?
Its value is “potent”.

What about the IC50 [3] of the same molecule?
Its IC50 is greater than 100 µM.
